A word on the EC50: it is the concentration at which the effect is half-maximal. Low readings indicate an effect from little substance, high ones a need for much substance.

Common to all, as to format: cell-based
Common to all, as to settings: 0.2% HSA

One assay addresses T1, human GIP receptor (Homo sapiens, UniProt P48546).
T1 construct: expressed in transfected cells; host or cells: BHK (parent line BHKTS13), BHK CRE luc2P hGIPR clone #5
T1 sequence (P48546 22-466): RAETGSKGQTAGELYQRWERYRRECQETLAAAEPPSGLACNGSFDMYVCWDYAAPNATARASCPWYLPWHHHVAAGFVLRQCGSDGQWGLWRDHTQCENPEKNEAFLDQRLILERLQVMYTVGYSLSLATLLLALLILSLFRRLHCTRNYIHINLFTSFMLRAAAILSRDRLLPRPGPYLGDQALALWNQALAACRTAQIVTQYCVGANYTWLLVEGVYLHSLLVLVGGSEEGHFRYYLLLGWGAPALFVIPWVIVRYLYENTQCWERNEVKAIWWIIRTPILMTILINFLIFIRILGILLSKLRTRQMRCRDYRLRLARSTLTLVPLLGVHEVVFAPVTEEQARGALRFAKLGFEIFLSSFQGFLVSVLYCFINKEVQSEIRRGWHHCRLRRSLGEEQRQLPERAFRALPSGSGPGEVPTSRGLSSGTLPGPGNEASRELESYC
Nature of the assay: In vitro potency (CRE luciferase; whole cells), BHK CRE luc2P hGIPR. In a few lines:
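BHK clones carrying a CRE luciferase element, each transfected with one human receptor, were seeded at 5000 cells/well overnight. Compounds were diluted in buffer with 1% ovalbumin and 0.1% Pluronic F-68, with or without human serum albumin. Luminescence was read after steadylite plus; non-linear log(agonist)-response fit, averaged over at least two replicates.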

A further assay has as its target T2, human GLP-1 receptor (Homo sapiens, UniProt P43220).
T2 construct: expressed in transfected cells; host or cells: BHK (parent line BHKTS13), BHK CRE luc2P hGLP-1R clone #6
The assay can be described thus: In vitro potency (CRE luciferase; whole cells), BHK CRE luc2P hGLP-1R. The procedure:
(§1) In Vitro Potency (CRE Luciferase; Whole Cells)
(§2) The in vitro potency is the measure of human GIP, GLP-1 or glucagon receptor activation, respectively, in a whole cell assay.
(§3) In vitro potency was determined by measuring the response of the human GIP, GLP-1 or glucagon receptor in a reporter gene assay in individual cell lines. […] When the respective receptor is activated it results in the production of cAMP, which in turn results in the luciferase protein being expressed. When assay incubation is completed the luciferase substrate (luciferin) is added and the enzyme converts luciferin to oxyluciferin to produce bioluminescence. The luminescence is measured as the readout for the assay.
(§4) The cells were derived from a clone containing the CRE luciferase element and were established by further transfection with the respective receptor to obtain the current clone.
(§5) The cells were cultured at 5% CO2 in Cell Culture Medium. They were aliquoted and stored in liquid nitrogen. The cells were kept in passage and were seeded out the day before each assay.
(§6) The Assay Buffer consisted of 1% ovalbumin and 0.1% Pluronic F-68 in Assay Medium with the addition of human serum albumin at twice the indicated concentrations.
(§7) 1) Cells were plated at 5000 cells/well and incubated overnight.
(§8) 2) Cells were washed three times in PBS.
(§9) 3) Assay Medium (50 μl aliquot) with or without serum albumin was added to each well in the assay plate.
(§10) 4) Stocks of the test compounds and reference compounds were diluted to a concentration of 0.2 μM in Assay Buffer. […] 8) The cells were washed three times with PBS plus some liquid in each well. 9) A 100 μl aliquot of steadylite plus reagent was added to each well of the assay plate (reagent was light sensitive). 10) Each assay plate was covered with aluminum foil to protect it from light and shaken for 30 min at room temperature. 11) Each assay plate was read in a microtiter plate reader. Calculations and Results
The data from the microtiter plate reader was transferred to GraphPad Prism software. The software performs a non-linear regression (log(agonist) vs response).
A minimum of two replicates was measured for each sample. The reported values are averages of the replicates.

The next assay has as its target T3, human glucagon receptor (Homo sapiens, UniProt P47871).
T3 construct: expressed in transfected cells; host or cells: BHK (parent line BHKTS13), BHK CRE luc2P hGCGR clone #18
Nature of the assay: In vitro potency (CRE luciferase; whole cells), BHK CRE luc2P hGCGR. The procedure:
as §1, §2, §3, §4, §5, §6, §7, §8, §9, §10
The data from the microtiter plate reader was transferred to GraphPad Prism software. […]
A minimum of two replicates was measured for each sample. […]

*1 amine or outer side, *2 acyl side, *3 side chain or, on linkers, in order; H or OH if unused. Where no end group is shown, it is not given here. Side-chain parts run from the residue outwards. [ ]: non-standard residue; d: D form. The star is where a group is joined. C18 diacid = O=C(O)CCCCCCCCCCCCCCCCC(=O)*; γGlu = O=C(O)[C@H](CCC(=O)[*:2])N[*:1]; Nle = CCCC[C@H](N)C(=O)O; AEEA = NCCOCCOCC(=O)O; Aib = CC(C)(N)C(=O)O A value given as a limit tells only on which side of the number the result lay.

T2 sequence (P43220 24-463): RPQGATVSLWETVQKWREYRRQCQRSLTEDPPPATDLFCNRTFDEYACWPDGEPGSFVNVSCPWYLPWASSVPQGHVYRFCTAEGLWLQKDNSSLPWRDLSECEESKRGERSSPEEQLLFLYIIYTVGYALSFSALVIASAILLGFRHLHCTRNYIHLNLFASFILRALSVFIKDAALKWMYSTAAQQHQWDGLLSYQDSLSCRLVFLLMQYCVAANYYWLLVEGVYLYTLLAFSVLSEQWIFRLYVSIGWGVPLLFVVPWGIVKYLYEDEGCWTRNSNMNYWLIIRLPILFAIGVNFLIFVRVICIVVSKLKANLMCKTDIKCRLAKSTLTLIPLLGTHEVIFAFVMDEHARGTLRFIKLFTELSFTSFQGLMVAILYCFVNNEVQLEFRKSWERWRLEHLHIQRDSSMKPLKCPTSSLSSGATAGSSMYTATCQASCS
T3 sequence (P47871 26-477): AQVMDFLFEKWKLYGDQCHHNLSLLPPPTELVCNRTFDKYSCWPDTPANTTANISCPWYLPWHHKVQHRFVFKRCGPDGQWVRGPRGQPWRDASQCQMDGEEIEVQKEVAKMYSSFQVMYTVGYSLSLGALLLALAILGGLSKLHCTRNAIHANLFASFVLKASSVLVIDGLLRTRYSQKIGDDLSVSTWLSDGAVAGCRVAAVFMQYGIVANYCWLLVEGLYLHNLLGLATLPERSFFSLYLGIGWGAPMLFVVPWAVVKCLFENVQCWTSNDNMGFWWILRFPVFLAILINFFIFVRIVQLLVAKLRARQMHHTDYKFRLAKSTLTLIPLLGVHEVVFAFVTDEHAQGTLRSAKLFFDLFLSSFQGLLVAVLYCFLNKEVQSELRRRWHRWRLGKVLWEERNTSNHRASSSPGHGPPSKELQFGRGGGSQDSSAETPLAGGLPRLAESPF

On to “Y[Aib]EGTFISDYSIA[Nle]DKIHQQDFVK([AEEA-AEEA-γGlu-C18 diacid])WLLAQKGKEEDWKHNITQ [Compound 35, N{Epsilon-24}-[2-[2-[2-[[2-[2-[2-[[(4S)-4-carboxy-4-(17-carboxyheptadecanoylamino)butanoyl]amino]ethoxy]ethoxy]acetyl]amino]ethoxy]ethoxy]acetyl]-[Aib2,Nle14,Lys24,Glu33,Glu34]-hGIP]”, for which the EC50 was 0.00545 nM on human GIP receptor, greater than 100 nM at human GLP-1 receptor and greater than 100 nM on human glucagon receptor.
`CCCC[C@H](NC(=O)[C@H](C)NC(=O)[C@@H](NC(=O)[C@H](CO)NC(=O)[C@H](Cc1ccc(O)cc1)NC(=O)[C@H](CC(=O)O)NC(=O)[C@H](CO)NC(=O)[C@@H](NC(=O)[C@H](Cc1ccccc1)NC(=O)[C@@H](NC(=O)CNC(=O)[C@H](CCC(=O)O)NC(=O)C(C)(C)NC(=O)[C@@H](N)Cc1ccc(O)cc1)[C@@H](C)O)[C@@H](C)CC)[C@@H](C)CC)C(=O)N[C@@H](CC(=O)O)C(=O)N[C@@H](CCCCN)C(=O)N[C@H](C(=O)N[C@@H](CCCNC(=N)N)C(=O)N[C@@H](CCC(N)=O)C(=O)N[C@@H](CCC(N)=O)C(=O)N[C@@H](CC(=O)O)C(=O)N[C@@H](Cc1ccccc1)C(=O)N[C@H](C(=O)N[C@@H](CCCCNC(=O)CC[C@H](NC(=O)CC[C@H](NC(=O)CC[C@H](NC(=O)CCCCCCCCCCCCCCCCC(=O)O)C(=O)O)C(=O)O)C(=O)O)C(=O)N[C@@H](Cc1c[nH]c2ccccc12)C(=O)N[C@@H](CC(C)C)C(=O)N[C@@H](CC(C)C)C(=O)N[C@@H](C)C(=O)N[C@@H](CCC(N)=O)C(=O)N[C@@H](CCCCN)C(=O)NCC(=O)N[C@@H](CCCCN)C(=O)N[C@@H](CCC(=O)O)C(=O)N[C@@H](CCC(=O)O)C(=O)N[C@@H](CC(=O)O)C(=O)N[C@@H](Cc1c[nH]c2ccccc12)C(=O)N[C@@H](CCCCN)C(=O)N[C@@H](Cc1c[nH]cn1)C(=O)N[C@@H](CC(N)=O)C(=O)N[C@H](C(=O)N[C@H](C(=O)N[C@@H](CCC(N)=O)C(=O)O)[C@@H](C)O)[C@@H](C)CC)C(C)C)[C@@H](C)CC` [Compound 40, N{Epsilon-24}-[(4S)-4-carboxy-4-[[(4S)-4-carboxy-4-[[(4S)-4-carboxy-4-(17-carboxyheptadecanoylamino)butanoyl]amino]butanoyl]amino]butanoyl]-[Aib2,Nle14,Arg18,Lys24,Glu33,Glu34]-hGIP]: the half-maximal effective concentration (EC50) was 0.00447 nM at human GIP receptor, greater than 100 nM at human GLP-1 receptor and greater than 100 nM on human glucagon receptor.
For `CCCC[C@H](NC(=O)[C@H](C)NC(=O)[C@@H](NC(=O)[C@H](CO)NC(=O)[C@H](Cc1ccc(O)cc1)NC(=O)[C@H](CC(=O)O)NC(=O)[C@H](CO)NC(=O)[C@@H](NC(=O)[C@H](Cc1ccccc1)NC(=O)[C@@H](NC(=O)CNC(=O)[C@H](CCC(=O)O)NC(=O)C(C)(C)NC(=O)[C@@H](N)Cc1ccc(O)cc1)[C@@H](C)O)[C@@H](C)CC)[C@@H](C)CC)C(=O)N[C@@H](CC(=O)O)C(=O)N[C@@H](CCCCN)C(=O)N[C@H](C(=O)N[C@@H](CCCNC(=N)N)C(=O)N[C@@H](CCC(N)=O)C(=O)N[C@@H](CCC(N)=O)C(=O)N[C@@H](CC(=O)O)C(=O)N[C@@H](Cc1ccccc1)C(=O)N[C@H](C(=O)N[C@@H](CCCCNC(=O)COCCOCCNC(=O)COCCOCCNC(=O)CC[C@H](NC(=O)CCCCCCCCCCCCCCCCC(=O)O)C(=O)O)C(=O)N[C@@H](Cc1c[nH]c2ccccc12)C(=O)N[C@@H](CC(C)C)C(=O)N[C@@H](CC(C)C)C(=O)N[C@@H](C)C(=O)N[C@@H](CCC(N)=O)C(=O)N[C@@H](CCCCN)C(=O)NCC(=O)N[C@@H](CCCCN)C(=O)N[C@@H](CCC(=O)O)C(=O)N[C@@H](CCC(=O)O)C(=O)N[C@@H](CC(=O)O)C(=O)N[C@@H](Cc1c[nH]c2ccccc12)C(=O)N[C@@H](CCCCN)C(=O)N[C@@H](Cc1c[nH]cn1)C(=O)N[C@@H](CC(N)=O)C(=O)N[C@H](C(=O)N[C@H](C(=O)N[C@@H](CCC(N)=O)C(=O)O)[C@@H](C)O)[C@@H](C)CC)C(C)C)[C@@H](C)CC` [Compound 37, N{Epsilon-24}-[2-[2-[2-[[2-[2-[2-[[(4S)-4-carboxy-4-(17-carboxyheptadecanoylamino)butanoyl]amino]ethoxy]ethoxy]acetyl]amino]ethoxy]ethoxy]acetyl]-[Aib2,Nle14,Arg18,Lys24,Glu33,Glu34]-hGIP], the EC50 at human GIP receptor was 0.00412 nM; at human GLP-1 receptor, greater than 100 nM; at human glucagon receptor it was greater than 100 nM.

These data come from patent publication US10604555B2, “GIP derivatives and uses thereof” (priority 2018, dated 2020).
